# Test results reported in PMC10388363, “Novel 1,4-Dihydropyridines as Specific Binders and Activators of SIRT3 Impair Cell Viability and Clonogenicity and Downregulate Hypoxia-Induced Targets in Cancer Cells” (Journal of Medicinal Chemistry, 2023).
# Like-named read-outs stand apart in the source and are kept apart here.
# Experiments:
# [1] = test system: CAL-62 cells; assay: Cell viability / cell death, trypan blue exclusion, CAL-62; assay type: cell-based; settings: for reduction of cell viability: CAL-62, 50 μM; for EC50: CAL-62, 48 h, read-out: EC50 cell death induction
# Method: (§1) Afterward, the selected compounds 3a–d were assayed at 50 μM for 24 and 48 h in CAL-62 and MDA-MB-231 cells to assess their ability to impair the cell viability and colony formation in either normoxia or hypoxia-induced condition, the latter obtained by adding a 200 μM cobalt chloride solution, as described in previous reports[69] (Figure 8). Most cancer cells, mainly solid types, are known to have an altered metabolism due to hypoxia, a non-physiological level of oxygen tension, which contributes to therapy resistance by causing cellular quiescence.[70] Moreover, hypoxic cancer cells can induce several factors that lead to cell proliferation and colony formation.[71]
# (§2) Breast cancer cell line MDA-MB-231, anaplastic thyroid cancer cell line CAL-62 and human keratinocytes HaCaT were purchased from ATCC and were cultured in RPMI 1640 medium (R0883 Sigma Aldrich-MERCK) (MDA-MB-231 and CAL-62) or DMEM medium (11965092, Gibco) supplemented with 10% fetal bovine serum (Sigma-Aldrich-MERCK, F9665), 2 mM glutamine (G7513; Sigma-Aldrich-MERCK), 100 units/mL penicillin and 0.1 mg/mL streptomycin (P0781; Sigma-Aldrich-MERCK). Adherent cells were detached by Trypsin–EDTA solution (TA049; Sigma-Aldrich-MERCK). Cells were maintained at 37 °C in humidified incubator with 5% CO2. Cells were treated with […] (CoCl2) (Merck; C8661) dissolved in distilled, sterile water for 24 h to induce hypoxia (200 μM). Hypoxic and normoxic cells were also treated with 10/50 μM of the indicated compounds (dissolved in DMSO) for 48 h, maintaining the CoCl2 in the culture medium for hypoxic conditions. SIRT3 inhibitor 3-TYP was dissolved in DMSO and added to a final concentration of 1 μM for 24 and/or 48 h.
# (§3) Cell viability was assessed by the trypan blue exclusion assay. At the end of treatments, cells were harvested and stained with 0,4% trypan blue (Merck; T8154). The cell suspension was applied to a hemocytometer and counted with phase contrast microscopy (NIKON EclipseTE2000U, Nikon Netherlands, Amsterdam, The Netherlands).
# [2] = test system: MDA-MB-231 cells; assay: Cell viability / cell death, trypan blue exclusion, MDA-MB-231; assay type: cell-based, human; settings: for IC50: MDA-MB-231, 48 h, read-out: IC50 reducing cell viability
# Method: as §1, §2, §3
# [3] = test system: HaCaT cells; assay: Cell viability / cell death in healthy HaCaT cells; assay type: cell-based, human; settings: for toxicity against healthy HaCaT cells: 5, 10, and 25 μM, 24 and 48 h; for Cell death (%) T24 / Cell death (%) T48: HaCaT; for Cell death (%) T24: 24 h; for Cell death (%) T48: 48 h
# Method: as §2, with “Hypoxic and normoxic cells were also treated with 10/50 μM of the indicated compounds (dissolved in DMSO) for 48 h, maintaining the CoCl2 in the culture medium for hypoxic conditions.” left out
# as §3
# [4] = test system: SNAIL, SLUG, ZEB1, COL1A2, MMP2/9 expression in MDA-MB-231; assay: qRT-PCR of EMT master regulator and ECM genes in MDA-MB-231 cells; assay type: cell-based, human; settings: 48 h; for EMT master regulator and ECM gene expression: MDA-MB-231, 10 μM; for SLUG expression / SNAIL, ZEB1, COLLAGEN, and MMP2/9 gene expression / SLUG gene expression / SNAIL, COL1A2, and MMP2/9 expression levels: MDA-MB-231, 50 μM; for SLUG expression / SNAIL, ZEB1, COLLAGEN, and MMP2/9 gene expression: hypoxic conditions (CoCl2); for SLUG gene expression / SNAIL, COL1A2, and MMP2/9 expression levels: normoxia
# Method: Afterward, based on the double localization described for SIRT3, which was primarily found into the mitochondria but translocated into the nucleus in stressful conditions,[75] the effects of SIRT3 activators on gene expression regulation were evaluated in MDA-MB-231 cells.
# Considering the previously described involvement of hypoxia in EMT induction,[78] we extended our biological study by analyzing the effects of SIRT3 activators on gene expression regulation under hypoxic conditions. Hypoxia induction of EMT was verified by gene expression analysis (upregulation of SNAIL, ZEB1, COLLAGEN, MMPs, and SLUG) after 72 h of treatment with CoCl2. In these experimental conditions, we verified the effectiveness of the previously tested SIRT3 activators 3c and 3d (50 μM, 48 h) in reducing EMT genes expression.
# RNAs were extracted by ReliaPrep RNA tissue miniprep system (Promega, Madison, WI, USA) and reverse transcribed with an iScriptTM c-DNA synthesis kit (Bio-Rad Laboratories Inc., Hercules, CA, USA). Real-time (RT-qPCR) analyses were performed on cDNAs that were amplified by the qPCR reaction using GoTaq qPCR Master Mix (Promega, Madison, WI, USA). Relative amounts obtained with the 2(−ΔCt) method were normalized with respect to the housekeeping gene human L32. Statistical analysis was performed with GraphPad Prism 8, and differences in gene expression were considered significant with a p-value <0.05.
# [5] = test system: MDA-MB-231 cells; assay: Scratch assay, MDA-MB-231 cell migration; assay type: cell-based, human; settings: 50 μM, 48 h
# Method: Next, a scratch assay on MDA-MB-231 cells after treatment with 3c and 3d at 50 μM for 48 h was performed to assess their effect on cell migration (Figure 14).
# Cell lines were maintained in culture medium (as above) until reaching 100% confluence, then shifted to a serum-depleted culture medium to inhibit cell proliferation, as described in Magistri et al.;[83] a scratch wound was created on the cell layer using a micropipette tip. Micrographs were taken at 0 and 48 h after the scratch. Cell-devoid areas at 0 and 48 h after the scratch were quantified through the Fiji ImageJ image processing package.
# [6] = test system: MDA-MB-231 cells; assay: Cell viability / cell death, trypan blue exclusion, MDA-MB-231; assay type: cell-based, human
# [7] = MDA-MB-231, 50 μM, 48 h, hypoxia
# [8] = MDA-MB-231, 50 μM, 48 h, normoxia
structure (smiles),measurement,setting,value
"CCOC(=O)C1=CN(C(=O)c2cccc(OC)c2)C=C(C(=O)OCC)C1c1ccccc1 [Compound 3a, Diethyl 1-(3-methoxybenzoyl)-4-phenyl-1,4-dihydropyridine-3,5-dicarboxylate]",reduction of cell viability,"[1]; 24 h, normoxia",37%
same,reduction of cell viability,"[1]; 48 h, hypoxia (200 μM CoCl2)",59%
same,reduction of cell viability,"[1]; 48 h, normoxia",64%
same,reduction viability,[2]; [7],11%
same,reduction viability,[2]; [8],60%
"CCOC(=O)C1=CN(C(=O)c2ccc(OC)c(OC)c2)C=C(C(=O)OCC)C1c1ccccc1 [Compound 3c, Diethyl 1-(3,4-dimethoxybenzoyl)-4-phenyl-1,4-dihydropyridine-3,5-dicarboxylate]",toxicity against healthy HaCaT cells,[3],negligible toxicity
same,EMT master regulator and ECM gene expression,[4],effective even at 10 μM
same,SLUG expression,[4],affected
same,"SNAIL, ZEB1, COLLAGEN, and MMP2/9 gene expression",[4],impair
same,SLUG gene expression,[4],not significantly affected
same,"SNAIL, COL1A2, and MMP2/9 expression levels",[4],reduce
same,MDA-MB-231 cell migration,[5],nicely reduce
"CCOC(=O)C1=CN(C(=O)c2cc(OC)cc(OC)c2)C=C(C(=O)OCC)C1c1ccccc1 [Compound 3d, Diethyl 1-(3,5-dimethoxybenzoyl)-4-phenyl-1,4-dihydropyridine-3,5-dicarboxylate]",Cell death (%) T48,"[1]; CAL-62, 10 μM, 48 h","36,6%"
same,reduction of cell viability,"[1]; 24 h, normoxia",55%
same,reduction of cell viability,"[1]; 48 h, hypoxia (200 μM CoCl2)",80%
same,reduction of cell viability,"[1]; 48 h, normoxia",90%
same,EC50,"[1]; Homo sapiens, hypoxia",~3.5 µM
same,EC50,"[1]; Homo sapiens, normoxia",~16.7 µM
same,viability at 10 µM,"[1]; Homo sapiens, CAL-62, 10 μM, 24 h, read-out: Cell viability (%) T24",79.6%
same,IC50,"[2]; Homo sapiens, hypoxia",10.6 µM
same,IC50,"[2]; Homo sapiens, normoxia",3.64 µM
same,viability at 10 µM,"[2]; Homo sapiens, MDA-MB-231, 10 μM, 48 h, read-out: Cell viability (%) T48",36.3%
same,reduction in cell viability (%) at 50 µM,"[2]; Homo sapiens, MDA-MB-231, 50 μM, 24 h, normoxia, read-out: viability impairment",34%
same,Cell death (%) T48,"[2]; MDA-MB-231, 10 μM, 48 h","63,6%"
same,reduction viability,[2]; [7],75%
same,reduction viability,[2]; [8],75%
same,toxicity against healthy HaCaT cells,[3],some degree of cell viability reduction and cell death only after 48 h treatment and at higher concentrations (10 and 25 μM)
same,Cell death (%) T24,[3]; 5 μM,"3,9%"
same,Cell death (%) T48,[3]; 5 μM,"16,1%"
same,Cell death (%) T24,[3]; 10 μM,"8,4%"
same,Cell death (%) T48,[3]; 10 μM,"33,9%"
same,Cell death (%) T24,[3]; 25 μM,"15,3%"
same,Cell death (%) T48,[3]; 25 μM,"47,3%"
same,EMT master regulator and ECM gene expression,[4],effective even at 10 μM
same,SLUG expression,[4],affected
same,"SNAIL, ZEB1, COLLAGEN, and MMP2/9 gene expression",[4],impair
same,SLUG gene expression,[4],not significantly affected
same,"SNAIL, COL1A2, and MMP2/9 expression levels",[4],reduce
same,MDA-MB-231 cell migration,[5],nicely reduce
same,impairment of MDA-MB-231 migration rate,[5],over 75%
same,viability at 5 µM,"[6]; Homo sapiens, MDA-MB-231, 5 μM, 24 h, read-out: Cell viability (%) T24",74.1%
same,viability at 5 µM,"[6]; Homo sapiens, MDA-MB-231, 5 μM, 48 h, read-out: Cell viability (%) T48",51.7%
same,viability at 10 µM,"[6]; Homo sapiens, MDA-MB-231, 10 μM, 24 h, read-out: Cell viability (%) T24",56.2%
same,viability at 25 µM,"[6]; Homo sapiens, MDA-MB-231, 25 μM, 24 h, read-out: Cell viability (%) T24",42.8%
same,viability at 25 µM,"[6]; Homo sapiens, MDA-MB-231, 25 μM, 48 h, read-out: Cell viability (%) T48",21.1%
same,Cell death (%) T24,"[6]; MDA-MB-231, 5 μM, 24 h","25,9%"
same,Cell death (%) T48,"[6]; MDA-MB-231, 5 μM, 48 h","48,3%"
same,Cell death (%) T24,"[6]; MDA-MB-231, 10 μM, 24 h","43,8%"
same,Cell death (%) T24,"[6]; MDA-MB-231, 25 μM, 24 h","57,2%"
same,Cell death (%) T48,"[6]; MDA-MB-231, 25 μM, 48 h","78,8%"
